From publication PMC11003488 (Journal of Enzyme Inhibition and Medicinal Chemistry, 2023)
Where “and” joins values, the source holds several entries; their conditions need not be identical. Equal values may be shown once. Read-outs that look alike come from different tables or passages of the source.

Assays:
Bax [1] = assay: Protein level by ELISA assay in HCT-116; assay type: cell-based, human; details: HCT-116, IC50 of compound, 24 h, vs 0.1% DMSO
NSCLC cell lines = assay: NCI-60 SRB growth inhibition, subpanel; assay type: cell-based, human; details: for GI50: Homo sapiens
SF-295 = assay: NCI-60 SRB growth inhibition, one-dose and five-dose; assay type: cell-based; details: Homo sapiens
OVCAR-5 = assay: as above; assay type: cell-based; details: Homo sapiens
HL-60(TB) = assay: cells; assay type: cell-based; details: Homo sapiens
IGROV1 = assay: NCI-60 SRB growth inhibition, one-dose and five-dose; assay type: cell-based; details: Homo sapiens
UO-31 = assay: as above; assay type: cell-based; details: Homo sapiens, UO-31
Caspase-3 [2] = assay: Gene expression by RT-qPCR in HCT-116; details: HCT-116, 24 h, IC50 of compound; vs 0.1% DMSO; 2^-ΔΔct
UACC-257 = assay: NCI-60 SRB growth inhibition, one-dose and five-dose; assay type: cell-based; details: Homo sapiens
[3] = tested on: Ovarian cancer cell lines; assay: NCI-60 SRB growth inhibition, subpanel; assay type: cell-based, human; details: for GI50: Homo sapiens
SF-539 = assay: NCI-60 SRB growth inhibition, one-dose and five-dose; assay type: cell-based; details: Homo sapiens
OVCAR-3 = assay: as above; assay type: cell-based; details: Homo sapiens
Human VEGFR-2 = Human VEGFR-2 (Homo sapiens, UniProt P35968); assay: VEGFR-2 inhibition assay; assay type: biochemical
Sequence of Human VEGFR-2 (P35968 20-1356): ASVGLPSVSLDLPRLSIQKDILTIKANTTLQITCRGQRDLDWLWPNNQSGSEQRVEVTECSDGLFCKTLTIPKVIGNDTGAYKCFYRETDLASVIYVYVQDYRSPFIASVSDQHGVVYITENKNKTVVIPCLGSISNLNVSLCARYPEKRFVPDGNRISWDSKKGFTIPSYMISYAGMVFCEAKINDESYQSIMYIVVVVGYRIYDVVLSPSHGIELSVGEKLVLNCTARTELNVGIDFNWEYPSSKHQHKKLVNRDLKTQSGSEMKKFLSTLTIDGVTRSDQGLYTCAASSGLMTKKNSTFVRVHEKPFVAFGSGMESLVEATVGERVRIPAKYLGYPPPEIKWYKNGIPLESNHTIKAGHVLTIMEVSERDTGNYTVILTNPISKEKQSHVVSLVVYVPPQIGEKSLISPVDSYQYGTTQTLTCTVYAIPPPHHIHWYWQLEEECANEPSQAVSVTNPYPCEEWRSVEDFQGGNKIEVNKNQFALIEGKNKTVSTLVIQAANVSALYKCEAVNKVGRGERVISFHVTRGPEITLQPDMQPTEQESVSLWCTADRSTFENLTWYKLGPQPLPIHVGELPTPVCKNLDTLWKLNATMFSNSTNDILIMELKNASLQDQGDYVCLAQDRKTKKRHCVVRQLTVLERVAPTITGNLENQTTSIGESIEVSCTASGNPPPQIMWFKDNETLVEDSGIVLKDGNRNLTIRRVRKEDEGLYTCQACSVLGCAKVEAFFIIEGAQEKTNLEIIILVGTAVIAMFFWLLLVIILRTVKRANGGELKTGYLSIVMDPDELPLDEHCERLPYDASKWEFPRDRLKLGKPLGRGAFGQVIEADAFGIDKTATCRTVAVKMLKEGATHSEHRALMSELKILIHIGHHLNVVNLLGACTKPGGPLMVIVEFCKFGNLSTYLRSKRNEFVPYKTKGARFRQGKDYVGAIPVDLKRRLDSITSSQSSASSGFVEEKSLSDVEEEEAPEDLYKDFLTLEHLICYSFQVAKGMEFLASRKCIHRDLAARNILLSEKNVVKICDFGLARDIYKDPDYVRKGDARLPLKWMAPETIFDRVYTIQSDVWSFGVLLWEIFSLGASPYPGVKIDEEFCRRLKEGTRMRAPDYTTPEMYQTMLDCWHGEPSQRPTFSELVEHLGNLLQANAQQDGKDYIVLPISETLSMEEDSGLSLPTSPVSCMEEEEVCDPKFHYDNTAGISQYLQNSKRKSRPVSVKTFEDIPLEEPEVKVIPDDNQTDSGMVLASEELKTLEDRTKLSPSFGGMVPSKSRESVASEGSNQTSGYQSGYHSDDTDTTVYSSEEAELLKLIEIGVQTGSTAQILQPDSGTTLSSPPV

HCT-116 = assay: NCI-60 SRB growth inhibition, one-dose and five-dose; assay type: cell-based; details: Homo sapiens
OVCAR-4 = assay: as above; assay type: cell-based; details: Homo sapiens
CNS cancer cell lines = assay: NCI-60 SRB growth inhibition, subpanel; assay type: cell-based, human; details: for GI50: Homo sapiens
Caspase-3 [4] = assay: Protein level by ELISA assay in HCT-116; assay type: cell-based, human; details: HCT-116, IC50 of compound, 24 h, vs 0.1% DMSO
[5] = tested on: Prostate cancer cell lines; assay: NCI-60 SRB growth inhibition, subpanel; assay type: cell-based, human; details: for GI50: Homo sapiens
MOLT-4 = assay: NCI-60 SRB growth inhibition, one-dose and five-dose; assay type: cell-based; details: Homo sapiens
Leukaemia cell lines = assay: NCI-60 SRB growth inhibition, subpanel; assay type: cell-based, human; details: Homo sapiens
TNF-α = assay: Gene expression by RT-qPCR in HCT-116; details: HCT-116, 24 h, IC50 of compound; vs 0.1% DMSO; 2^-ΔΔct
Renal cancer cell lines = assay: NCI-60 SRB growth inhibition, subpanel; assay type: cell-based, human; details: for GI50: Homo sapiens
HCT-116 (colon cancer) [6] = assay: Apoptosis AV/PI assay by flow cytometry; assay type: cell-based, human; details: HCT-116, 24 h, IC50 of compound
MDA-MB-231/ATCC = assay: NCI-60 SRB growth inhibition, one-dose and five-dose; assay type: cell-based; details: Homo sapiens, MDA-MB-231
[7] = tested on: NCI 60-cell line panel (full panel); assay: NCI-60 SRB growth inhibition, full panel mean / MG-MID; assay type: cell-based, human; details: for GI50: Homo sapiens, 60 cell
Breast cancer cell lines = assay: NCI-60 SRB growth inhibition, subpanel; assay type: cell-based, human; details: for GI50: Homo sapiens
HS 578 T = assay: NCI-60 SRB growth inhibition, one-dose and five-dose; assay type: cell-based; details: Homo sapiens
HCT-15 = assay: as above; assay type: cell-based; details: Homo sapiens
Bax [8] = assay: Gene expression by RT-qPCR in HCT-116; details: HCT-116, 24 h
HCT-116 (colon cancer) [9] = assay: Cell cycle analysis by PI flow cytometry; assay type: cell-based, human; details: HCT-116, 24 h, IC50 of compound
Melanoma cell lines = assay: NCI-60 SRB growth inhibition, subpanel; assay type: cell-based, human; details: for GI50: Homo sapiens
SNB-19 = assay: NCI-60 SRB growth inhibition, one-dose and five-dose; assay type: cell-based; details: Homo sapiens
COLO 205 = assay: as above; assay type: cell-based; details: Homo sapiens
[10] = tested on: WI-38 normal human fibroblast cells; assay: Cytotoxicity towards normal fibroblasts, safety index; assay type: cell-based; details: WI-38 versus cancer cell lines
[11] = as above; assay type: cell-based, human; details: human, WI-38 normal fibroblast cells
Colon cancer cell lines = assay: NCI-60 SRB growth inhibition, subpanel; assay type: cell-based, human; details: for GI50: Homo sapiens
RXF 393 = assay: NCI-60 SRB growth inhibition, one-dose and five-dose; assay type: cell-based; details: Homo sapiens

For `O=C(/C=C/c1cccnc1)c1cccc(NCc2ccc(CO)cc2)c1` [Compound 5e, (E)-1–(3-((4-(hydroxymethyl)benzyl)amino)phenyl)-3-(pyridin-3-yl)prop-2-en-1-one], the Bax protein level (Bax [1]) was 3.14 fold, the GI50 (NSCLC cell lines; read-out: GI50 MG-MID) was 13.6 µM and the GI50 (NSCLC cell lines; read-out: MG-MID GI50) was 13.6 µM. The “SI (Selectivity Index)” value (NSCLC cell lines; full panel MG-MID / NSCLC subpanel MG-MID) was 0.73, the GI50 (SF-295; SF-295) was 14.5 µM and the inhibition at 10 µM (SF-295; SF-295, read-out: percent growth inhibition) was 39.8%. The GI50 (OVCAR-5; OVCAR-5) was 14.6 µM, the inhibition at 10 µM (OVCAR-5; OVCAR-5, read-out: percent growth inhibition) was 32.6% and the GI50 (HL-60(TB); HL-60) was 4.23 µM. It also gave an inhibition at 10 µM (HL-60(TB); HL-60, read-out: percent growth inhibition) of 118%, a GI50 (IGROV1; IGROV-1) of 3.58 µM and an inhibition at 10 µM (IGROV1; IGROV-1, read-out: percent growth inhibition) of 86.3%. For the same compound, the GI50 (UO-31) was 11.2 µM, the “Caspase-3 gene expression fold change” value (Caspase-3 [2]) was 2.28 ± 0.14 fold and the GI50 (UACC-257; UACC-257) was 14.7 µM. For the same compound, the inhibition at 10 µM (UACC-257; UACC-257, read-out: percent growth inhibition) was 61.4%, the GI50 ([3]; read-out: GI50 MG-MID) was 11.2 µM and the GI50 ([3]; read-out: MG-MID GI50) was 11.2 µM. The “SI (Selectivity Index)” value ([3]; full panel MG-MID / Ovarian Cancer subpanel MG-MID) was 0.89, the GI50 (SF-539; SF-539) was 14.5 µM and the inhibition at 10 µM (SF-539; SF-539, read-out: percent growth inhibition) was 98.5%. For the same compound, the GI50 (OVCAR-3; OVCAR-3) was 10.3 µM, the inhibition at 10 µM (OVCAR-3; OVCAR-3, read-out: percent growth inhibition) was 131% and the IC50 (Human VEGFR-2) was 0.37 ± 0.012 µM. The GI50 (HCT-116; HCT-116, HCT-116, five-dose screening) was 1.88 µM, the inhibition at 10 µM (HCT-116; HCT-116, read-out: percent growth inhibition) was 193% and the GI50 (OVCAR-4; OVCAR-4) was 11.6 µM. For the same compound, the inhibition at 10 µM (OVCAR-4; OVCAR-4, read-out: percent growth inhibition) was 48.8%, the GI50 (CNS cancer cell lines; read-out: GI50 MG-MID) was 12.2 µM and the GI50 (CNS cancer cell lines; read-out: MG-MID GI50) was 12.2 µM. The “SI (Selectivity Index)” value (CNS cancer cell lines; full panel MG-MID / CNS Cancer subpanel MG-MID) was 0.82, the caspase-3 protein level (Caspase-3 [4]) was 58.44 fold and the GI50 ([5]; read-out: GI50 MG-MID) was 12.2 µM. The GI50 ([5]; read-out: MG-MID GI50) was 12.2 µM, the “SI (Selectivity Index)” value ([5]; full panel MG-MID / Prostatic Cancer subpanel MG-MID) was 0.82 and the GI50 (MOLT-4; MOLT-4) was 2.69 µM. The inhibition at 10 µM (MOLT-4; MOLT-4, read-out: percent growth inhibition) was 120%, the GI50 (Leukaemia cell lines; read-out: GI50 MG-MID) was 3.29 µM and the GI50 (Leukaemia cell lines; read-out: MG-MID GI50) was 3.29 µM. The “TNF-α gene expression fold change” value (TNF-α) was 372 fold and 372.22 ± 10.8 fold, the GI50 (Renal cancer cell lines; read-out: GI50 MG-MID) was 13 µM and the GI50 (Renal cancer cell lines; read-out: MG-MID GI50) was 13 µM. The “SI (Selectivity Index)” value (Renal cancer cell lines; full panel MG-MID / Renal Cancer subpanel MG-MID) was 0.77, the “% Early apoptotic cells (LR)” value (HCT-116 (colon cancer) [6]) was 0.05 ± 0.001% and the “% Late apoptotic cells (UL)” value (HCT-116 (colon cancer) [6]) was 94.74 ± 8.9%. For the same compound, the “% Necrotic cells (UR)” value (HCT-116 (colon cancer) [6]) was 2.71 ± 0.33%, the “% Viable cells (LL)” value (HCT-116 (colon cancer) [6]) was 2.50 ± 0.12% and the GI50 (MDA-MB-231/ATCC) was 3.75 µM. The GI50 ([7]; read-out: Full panel GI50 mean) was 9.96 µM, the GI50 ([7]; read-out: Full panel MG-MID GI50) was 9.96 µM and the “Full panel Mean GI %” value ([7]; mean over NCI-60 panel, single dose 10 µM) was 86.06%. The GI50 (Breast cancer cell lines; read-out: GI50 MG-MID) was 7.2 µM, the GI50 (Breast cancer cell lines; read-out: MG-MID GI50) was 7.2 µM and the “SI (Selectivity Index)” value (Breast cancer cell lines; full panel MG-MID / Breast Cancer subpanel MG-MID) was 1.38. For the same compound, the GI50 (HS 578 T) was 18 µM, the inhibition at 10 µM (HS 578 T; read-out: percent growth inhibition) was 33.5% and the GI50 (HCT-15; HCT-15) was 3.01 µM. The inhibition at 10 µM (HCT-15; HCT-15, read-out: percent growth inhibition) was 132%, the “Bax gene expression fold change” value (Bax [8]; IC50 of compound, vs 0.1% DMSO, 2^-ΔΔct) was 5 fold and 5.00 ± 1.1 fold and the Bax/Bcl-2 ratio (Bax [8]; ratio of gene expression fold changes) was 4.5. The “% G0-G1” value (HCT-116 (colon cancer) [9]) was 30.02 ± 7.1%, the “% G2M” value (HCT-116 (colon cancer) [9]) was 10.42 ± 1.7% and the “% S” value (HCT-116 (colon cancer) [9]) was 10.55 ± 3.5%. The “% SubG0-G1” value (HCT-116 (colon cancer) [9]) was 49.01 ± 7.2%, the GI50 (Melanoma cell lines; read-out: GI50 MG-MID) was 10.6 µM and the GI50 (Melanoma cell lines; read-out: MG-MID GI50) was 10.6 µM. For the same compound, the “SI (Selectivity Index)” value (Melanoma cell lines; full panel MG-MID / Melanoma subpanel MG-MID) was 0.94, the GI50 (SNB-19; SNB-19) was 12.4 µM and the inhibition at 10 µM (SNB-19; SNB-19, read-out: percent growth inhibition) was 74.9%. The GI50 (COLO 205; COLO 205) was 16.3 µM, the inhibition at 10 µM (COLO 205; COLO 205, read-out: percent growth inhibition) was 37.3% and the Safety index [10] was over 1. For the same compound, the GI50 at 48 h [11] was over 100 µM, the GI50 (Colon cancer cell lines; read-out: GI50 MG-MID) was 6.42 µM and the GI50 (Colon cancer cell lines; read-out: MG-MID GI50) was 6.42 µM. For the same compound, the “SI (Selectivity Index)” value (Colon cancer cell lines; full panel MG-MID / Colon Cancer subpanel MG-MID) was 1.55, the GI50 (RXF 393; RXF 393) was 13.7 µM and the inhibition at 10 µM (RXF 393; RXF 393, read-out: percent growth inhibition) was 121%.
